Data from BindingDB's records for PubMed 8022403 (National Institute of Diabetes, Digestive and Kidney …, 1994).

Assays:
[1] = molecular target: Adenosine receptor A2a (Rattus norvegicus, UniProt P30543)
[2] = molecular target: T1, Adenosine receptor A1 (Rattus norvegicus, UniProt P25099)
T1 sequence (P25099 whole entry): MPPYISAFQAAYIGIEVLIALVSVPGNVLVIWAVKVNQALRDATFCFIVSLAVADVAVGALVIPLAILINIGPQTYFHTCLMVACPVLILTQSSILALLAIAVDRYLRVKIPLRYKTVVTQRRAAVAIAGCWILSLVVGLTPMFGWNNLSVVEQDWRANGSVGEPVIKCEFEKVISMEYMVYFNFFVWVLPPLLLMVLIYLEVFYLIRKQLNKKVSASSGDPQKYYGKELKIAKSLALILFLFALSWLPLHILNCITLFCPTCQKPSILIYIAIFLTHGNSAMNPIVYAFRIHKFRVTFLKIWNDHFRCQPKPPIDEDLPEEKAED

Adenosine receptor A2a, sequence (P30543 whole entry): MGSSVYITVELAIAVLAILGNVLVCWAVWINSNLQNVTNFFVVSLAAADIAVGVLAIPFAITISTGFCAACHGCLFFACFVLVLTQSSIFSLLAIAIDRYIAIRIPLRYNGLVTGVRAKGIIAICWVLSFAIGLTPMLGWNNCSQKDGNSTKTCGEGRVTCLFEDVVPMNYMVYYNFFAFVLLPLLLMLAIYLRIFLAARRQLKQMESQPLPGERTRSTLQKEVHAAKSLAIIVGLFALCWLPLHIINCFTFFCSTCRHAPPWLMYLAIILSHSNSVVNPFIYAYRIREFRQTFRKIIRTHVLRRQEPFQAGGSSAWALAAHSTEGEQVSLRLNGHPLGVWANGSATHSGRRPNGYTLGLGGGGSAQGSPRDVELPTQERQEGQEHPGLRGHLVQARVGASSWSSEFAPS

Row | SMILES | Ki [1] | Ki [2]
1 | CO[C@@H]1[C@H](O)[C@@H](CO)O[C@H]1n1cnc2c(N)ncnc21 | > 10 µM | > 10 µM
2 | Cn1c(=O)[nH]c2c(ncn2C)c1=O [1,9-Dimethylxanthine] | > 10 µM | > 10 µM
3 | Nc1ncnc2c1ncn2[C@H]1C[C@H](O)[C@@H](CO)O1 [2'deoxyadenosine] | > 10 µM | > 10 µM
4 | NCC1OC(n2cnc3c(N)ncnc32)C(O)C1O (stereo not given) [2-Aminomethyl-5-(6-amino-purin-9-yl)-tetrahydro-furan-3,4-diol] | 38.5 µM | 
5 | Nc1nc(S)c2ncn(C3OC(CO)C(O)C3O)c2n1 (stereo not given) [2-azanyl-9-[5-(hydroxymethyl)-3,4-bis(oxidanyl)oxolan-2-yl]-3H-purine-6-thione] | > 10 µM | > 10 µM
6 | CCNC(=O)[C@H]1O[C@@H](n2cnc3c(=O)[nH]cnc32)[C@H](O)[C@@H]1O [5'-N-ethylcarboxamidoinosine] | > 10 µM | > 10 µM
7 | C[S+](CC[C@H](N)C(=O)[O-])C[C@H]1O[C@@H](n2cnc3c(N)ncnc32)[C@H](O)[C@@H]1O (stereo partly drawn) [(2S)-2-amino-4-({[(2S,3S,4R,5R)-5-(6-amino-9H-purin-9-yl)-3,4-dihydroxyoxolan-2-yl]methyl}(methyl)sulfanylium)butanoate] | 2.78 µM | 0.675 µM
8 | O=c1ccn(C2OC(COP(=O)(O)OP(=O)(O)O)C(O)C2O)c(=O)[nH]1 (stereo not given) [hydrogen ({[5-(2,4-dioxo-1,2,3,4-tetrahydropyrimidin-1-yl)-3,4-dihydroxyoxolan-2-yl]methylphosphonato}oxy)phosphonate] | > 10 µM | > 10 µM
9 | Cc1cn([C@H]2C[C@H](O)[C@@H](CO)O2)c(=O)[nH]c1=O [thymidine] | > 10 µM | > 10 µM

The next lines start with the values.

Row | Ki [1] | Ki [2] | SMILES
10 | > 10 µM | 0.455 µM | CCCCCC[C@H]([C@H](C)O)n1cnc2c(N)ncnc21 (relative stereo) [3-(6-amino-9H-purin-9-yl)nonan-2-ol]
11 | > 10 µM | > 10 µM | Nc1ncnc2c1ncn2[C@@H]1O[C@H](CO)C[C@H]1O [3'-Deoxyadenosine (cordycepin)]
12 | > 10 µM | > 10 µM | Cn1cnc2c(=O)[nH]c(=O)n(C)c21 [3,9-dimethyl-3,9-dihydro-1h-purine-2,6-dione]
13 | > 10 µM | > 10 µM | Nc1ccn([C@@H]2O[C@H](COP(=O)(O)OP(=O)(O)O)[C@@H](O)[C@H]2O)c(=O)n1 [5'-CDP]
14 | > 10 µM | > 10 µM | Cn1cnc2[nH]c(=O)[nH]c(=O)c21 [7-Methylxanthine]
15 | 22.7 µM | > 10 µM | Nc1ncnc2c1nc(Br)n2C1OC(CO)C(O)C1O (stereo not given) [8-Bromoadenosine]
16 | > 10 µM | > 10 µM | O=c1[nH]c(=O)c2ncn(C3OC(COP(=O)(O)O)C(O)C3O)c2[nH]1 (stereo not given) [CAS_146-80-5]
17 | > 10 µM | > 10 µM | O=c1[nH]c(=O)c2[nH]c(Cl)nc2[nH]1 [CAS_13548-68-0]
18 |  | > 10 µM | OCC1OC(n2cnc3c(S)ncnc32)C(O)C1O (stereo not given) [NSC_1867]
19 | 85.1 µM | 27.8 µM | Nc1nc2c(ncn2[C@H]2O[C@@H](COP(=O)(O)O)[C@H](O)[C@@H]2O)c(=O)[nH]1 [NSC_6804]
20 |  | 27 µM | Nc1ncnc2c1N([C@H]1O[C@@H](CO)[C@H](O)[C@@H]1O)CN2 [T-7-Riboside]
21 | > 10 µM |  | Nc1ncnc2c1ncn2[C@@H]1O[C@H](COP(=O)(O)O)[C@@H](O)[C@H]1O [adenosine 5 -monophosphate]
22 | > 10 µM | > 10 µM | Nc1ncnc2c1ncn2[C@@]1(CO)O[C@H](CO)[C@@H](O)[C@H]1O [beta-D-Psicofuranosyladenine]
